According to patent US20090163476A1, “N-Phenyl Benzamide Derivatives as Sirtuin Modulators” (Sirtris Pharmaceuticals, Inc., priority 2005, published 2009):

Assays:
SIRT1 = biological target: T1, SIRT1 (Homo sapiens, UniProt Q96EB6); experiment: SIRT1 fluorescence polarization or mass spectrometry based assay (format not given); type: biochemical; settings: inhibition of SIRT1 (Table 5)
T1 sequence (Q96EB6 1-747): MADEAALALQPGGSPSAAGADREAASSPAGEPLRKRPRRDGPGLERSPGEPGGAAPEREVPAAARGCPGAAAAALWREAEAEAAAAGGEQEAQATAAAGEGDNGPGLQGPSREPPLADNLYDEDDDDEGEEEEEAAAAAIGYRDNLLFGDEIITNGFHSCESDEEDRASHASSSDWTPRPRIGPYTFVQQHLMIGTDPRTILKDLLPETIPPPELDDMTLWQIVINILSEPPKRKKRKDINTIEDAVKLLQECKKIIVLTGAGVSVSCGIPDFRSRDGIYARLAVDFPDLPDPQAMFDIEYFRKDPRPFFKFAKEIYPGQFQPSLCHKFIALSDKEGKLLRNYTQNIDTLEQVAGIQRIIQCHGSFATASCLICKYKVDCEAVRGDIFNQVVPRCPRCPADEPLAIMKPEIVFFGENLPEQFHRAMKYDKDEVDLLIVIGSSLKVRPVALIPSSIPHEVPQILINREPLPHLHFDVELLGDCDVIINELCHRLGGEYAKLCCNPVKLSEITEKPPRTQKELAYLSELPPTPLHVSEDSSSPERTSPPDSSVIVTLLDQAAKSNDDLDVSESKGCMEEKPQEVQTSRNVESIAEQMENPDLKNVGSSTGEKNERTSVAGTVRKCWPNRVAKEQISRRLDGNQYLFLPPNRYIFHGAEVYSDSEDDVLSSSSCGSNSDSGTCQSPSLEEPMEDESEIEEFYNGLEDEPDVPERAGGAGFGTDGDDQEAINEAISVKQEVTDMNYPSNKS

human SIRT3 = biological target: T2, human SIRT3 (Homo sapiens, UniProt Q9NTG7); experiment: Fluorescence polarization assay of SIRT3 activity (Histone H4-based peptide substrate); type: biochemical; settings: inhibition of SIRT3 (Table 7)
T2 construct: The SIRT3 protein used in the assays corresponded to amino acid residues 102-399 of human SIRT3; His-tag (N); made in house; host or cells: E. coli
T2 sequence (Q9NTG7 102-399): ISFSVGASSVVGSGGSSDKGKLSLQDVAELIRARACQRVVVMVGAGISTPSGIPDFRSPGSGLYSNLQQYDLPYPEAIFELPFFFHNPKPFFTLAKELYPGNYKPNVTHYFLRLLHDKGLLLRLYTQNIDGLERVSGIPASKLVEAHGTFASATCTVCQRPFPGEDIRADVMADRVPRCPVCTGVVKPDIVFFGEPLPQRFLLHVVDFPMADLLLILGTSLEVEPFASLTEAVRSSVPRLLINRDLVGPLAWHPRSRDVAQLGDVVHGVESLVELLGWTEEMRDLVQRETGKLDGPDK
Source text: A fluorescence polarization assay was used to identify modulators of SIRT3 activity. The same assay may be used to identify modulators of any sirtuin protein. The assay utilizes a peptide substrate based on a fragment of Histone H4, a known sirtuin deacetylation target. The substrate contains a peptide having 14 amino acid residues as follows: Biotin-GASSHSK(Ac)VLK(MR121) (SEQ ID NO: 3) wherein K(Ac) is an acetylated lysine residue. The peptide is labeled with the fluorophore MR121 (excitation 635 nm/emission 680 nm) at the C-terminus and biotin at the N-terminus.
The peptide substrate is exposed to a sirtuin protein in the presence of NAD^+ to allow deacetylation of the substrate and render it sensitive to cleavage by trypsin. Trypsin is then added and the reaction is carried to completion (i.e., the deacetylated substrate is cleaved) releasing the MR121 fragment. Streptavidin is then added to the reaction where it can bind both the uncleaved substrate (i.e., any remaining acetylated substrate) and the non-fluorescent portion of the cleaved peptide substrate (i.e., the biotin containing fragment). The fluorescence polarization signal observed for the full length peptide substrate bound to streptavidin is higher than the fluorescence polarization signal observed for the released MR121C-terminal fragment. Therefore, the fluorescence polarization obtained is inversely proportional to the level of deacetylation (e.g., the signal is inversely proportional to the activity of the sirtuin protein). Results are read on a microplate fluorescence polarization reader (Molecular Devices Spectramax MD) with appropriate excitation and emission filters.
The fluorescence polarization assays may be conducted as follows: 0.5 μM peptide substrate and 50 μM βNAD^+ is incubated with 2 nM of SIRT3 for 60 minutes at 37° C. in a reaction buffer (25 mM Tris-acetate pH8, 137 mM Na—Ac, 2.7 mM K—Ac, 1 mM Mg—Ac, 0.1% Pluronic F127, 10 mM CaCl2, 1 mM TCEP, 0.025% BSA). Test compounds are solubilized in DMSO and are added to the reaction at 11 concentrations ranging from 0.7 μM to 100 μM. The SIRT3 protein used in the assays corresponded to amino acid residues 102-399 of human SIRT3 with an N-terminal His-tag. […] Fluorescent polarization is determined at excitation (650 nm) and emissions (680 nm) wavelengths. The level of activity of the sirtuin protein in the presence of the various concentrations of test compound are then determined and may be compared to the level of activity of the sirtuin protein in the absence of the test compound, and/or the level of activity of the sirtuin proteins in the negative control (e.g., level of inhibition) and positive control (e.g., level of activation) described below. […]

IC50 (SIRT1) [µM] | IC50 (human SIRT3) [µM] | SMILES
101 to 150 | 51 to 100 | COc1ccccc1C(=O)Nc1cccc(/C=C/C(=O)N2CCCNCC2)c1 [Compound 15]
 | 101 to 150 | N#Cc1cccc(C(=O)Nc2ccc(-c3cc(C(N)=O)co3)cc2)c1 [Compound 16]
 | 51 to 100 | O=C(Nc1cccc(/C=C/C(=O)N2CCCNCC2)c1)c1ccc(F)c(C(F)(F)F)c1 [Compound 17]
 | 51 to 100 | COc1ccc(C(=O)Nc2cccc(/C=C/C(=O)N3CCCNCC3)c2)cc1OC [Compound 18]
